Source: patent publication US10092574B2, “Inhibitors of polynucleotide repeat-associated RNA foci and uses thereof” (VALORISATION-RECHERCHE, LIMITED PARTNERSHIP, priority 2013, dated 2018)

Assays:
Assay type in all cases: cell-based, human
CUGBP1 = assay: Western blot of CUGBP1 protein levels in myoblasts; settings: 20 μM, 7 days (FIG. 7); for reduction of CUGBP1 levels: DM1 myoblasts
Protocol: Human myoblasts were obtained from the Myosix institute associated with the Association Frangaise contre les Myopathies (AFM). Five primary myoblast lines were obtained as controls, and one line from a DM1 patient with a 3.8 Kb CTG triplet amplification corresponding to approximately 1250 CTG repeats. The human myoblasts are cultivated in HAM-F10 media (SIGMA N6635) with 15% FBS, 1% chick embryo extract, and 390 ng/ml of dexamethasone. One day before adding compounds, 2×10^5 cells were plated in 100 mm plates (for CUGBP1 western blot or RT-PCR alternative splicing assay) or 2×10^4 cells/well are seeded in 12-well plates containing 12 mm round glass coverslips (for FISH to detect RNA foci). One day after plating, media is replaced with fresh media containing the compounds at the desired concentration in this manner: the media is put in a screw-cap tube and heated at 37° C. The 20 mM compound stock in 100% DMSO is pipetted directly into the media and the tube is mixed well by inversion and gentle vortexing, and immediately overlayed on the cells. Pure DMSO is used for the control cells. Final concentrations on myoblasts are never higher than 0.5%. This procedure is repeated twice during the seven days of treatment, the media is thus replaced with fresh media containing compound every 2-3 days. Cells are collected or fixed for FISH after one week.
For Western blots, CUGBP1 was detected with the 3B1-3D11 monoclonal antibody (mAb) (SIGMA C5112) and GAPDH was detected with the 6C5 mAb (Millipore MAB374). The enhanced chemiluminescence signal (ECL) was acquired and quantified with the ChemiDoc™ MP imaging system (Bio-Rad). For alternative splicing assays, total RNA was collected with Trizol™ (Invitrogen), and 1 μg was used for reverse transcription with random primers with the RevertAid™ H Minus M-MuL RT (Fermentas) according to manufacturer's instructions. For MBNL2, PCR amplification was performed with primers 5′-[…]-3′ (SEQ ID NO:1) and 5′-[…]-3′ (SEQ ID NO:2). SERCA1 was amplified with primers 5′-[…]-3′ (SEQ ID NO:3) and 5′-[…]-3′ (SEQ ID NO:4). For TNNT2 (cardiac Troponin T), PCR was carried out with primers 5′-[…]-3′ (SEQ ID NO:5) and 5′-[…]-3′ (SEQ ID NO:6). The alternative splicing of the hnRNPA2/B1 transcript was detected with the primers 5′-[…]-3′ (SEQ ID NO:7) and 5′-[…]-3′ (SEQ ID NO:8). PCR was performed with Taq using standard conditions but the number of amplification cycles was optimized to be in the quantitative range for each gene. The products of PCR amplification were resolved on 3.5% agarose gels containing Gelred™ (Biotium) and images were acquired and quantified with the ChemiDoc™ MP imaging system (Bio-Rad). […]

SERCA1 exon 22 = assay: RT-PCR alternative splicing assay, SERCA1 exon 22; settings: DM1 myoblasts, 20 μM, 7 days; WT 59%, DM1 less than 2% (FIG. 8B)
Protocol: Human myoblasts were obtained from the Myosix institute associated with the Association Frangaise contre les Myopathies (AFM). Five primary myoblast lines were obtained as controls, and one line from a DM1 patient with a 3.8 Kb CTG triplet amplification corresponding to approximately 1250 CTG repeats. The human myoblasts are cultivated in HAM-F10 media (SIGMA N6635) with 15% FBS, 1% chick embryo extract, and 390 ng/ml of dexamethasone. One day before adding compounds, 2×10^5 cells were plated in 100 mm plates (for CUGBP1 western blot or RT-PCR alternative splicing assay) or 2×10^4 cells/well are seeded in 12-well plates containing 12 mm round glass coverslips (for FISH to detect RNA foci). […]
For Western blots, CUGBP1 was detected with the 3B1-3D11 monoclonal antibody (mAb) (SIGMA C5112) and GAPDH was detected with the 6C5 mAb (Millipore MAB374). The enhanced chemiluminescence signal (ECL) was acquired and quantified with the ChemiDoc™ MP imaging system (Bio-Rad). […] The alternative splicing of the hnRNPA2/B1 transcript was detected with the primers 5′-[…]-3′ (SEQ ID NO:7) and 5′-[…]-3′ (SEQ ID NO:8). PCR was performed with Taq using standard conditions but the number of amplification cycles was optimized to be in the quantitative range for each gene. […]

MBNL1 mRNA exon 7 = assay: RT-PCR alternative splicing assay, MBNL1 exon 7; settings: DM1 myoblasts, 5 to 60 μM, 7 days (FIG. 12B)

SMILES | reduction of CUGBP1 levels (CUGBP1) | change of CUGBP1 levels in WT cells (CUGBP1; WT myoblasts) | inclusion of SERCA1 exon 22, of total transcripts (SERCA1 exon 22) | dose-response effect on splicing of MBNL1 mRNA (MBNL1 mRNA exon 7)
CCCN(CCC)S(=O)(=O)c1ccc(NS(=O)(=O)Cc2ccccc2)cc1 [Compound 15] | 85% | does not change | 17% | 
CCCc1c(C(=O)N(Cc2ccccc2)Cc2cccs2)cnn1-c1ccccc1 [Compound 32] | 30% |  |  | clear dose-response effect
